Assay results published in PubChem BioAssay (NCI).
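Step 1: Grow cells in 96-well plates. Step 2: Expose to compound for 48 hours at 5 concentrations. Step 3: Interpolate endpoints linearly; if unreached, use highest concentration. TGI is the concentration that stops growth completely.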

Assays:
Assay in all cases: NCI anticancer screen, dose series, 48 h
[1] = test system: A498 renal
[2] = test system: ACHN renal
[3] = test system: LOX IMVI melanoma
[4] = test system: MALME-3M melanoma
[5] = test system: NCI-H23 lung
[6] = test system: SN12C renal
[7] = test system: SNB-19 CNS
[8] = test system: SW-620 colon
[9] = test system: T-47D breast
[10] = test system: UO-31 renal

SMILES	TGI [1] [µM]	TGI [2] [µM]	TGI [3] [µM]	TGI [4] [µM]	TGI [5] [µM]	TGI [6] [µM]	TGI [7] [µM]	TGI [8] [µM]	TGI [9] [µM]	TGI [10] [µM]
CCN1c2cc(Br)cc3[nH]c(=O)n(c23)CCC1C (stereo not given)	29	63.5	24.7	56.1	53.2	30.6	> 100	> 100	59.9	37.7
Cc1c(/C=N/NC(=S)Nc2ccc(Cl)cc2)c(=O)n(-c2ccccc2)n1C	> 58.8	31.9	> 100	> 60.3	54.5	> 100	> 60.8	> 100	> 83.9	> 100
CCOC(=O)C1(C/C=C/CCl)CCCC1=O (stereo not given)	> 100	36.6	30.4	45.4	38.3	59.1	61.2	42.1	51.3	39.7
Clc1cc(Cl)c2cc3cccc[n+]3cc2c1Cl	34	31.7	34.7	53.7	30.4	39.5	28.7	34.3	23.9	28.4
CN(Cc1cn(O)c2nc(=N)nc(N)c-2n1)c1ccc(C(=O)NC23CC4CC(CC(C4)C2)C3)cc1	57.1	> 100	> 100	> 100	> 100	> 100	> 100	> 100	> 100	> 100
